Assay results reported in publication PMC9518248, “Inhibition of Toxoplasma gondii by 1,2,4-triazole-based compounds: marked improvement in selectivity relative to the standard therapy pyrimethamine and sulfadiazine” (Journal of Enzyme Inhibition and Medicinal Chemistry, 2022).
Values after ≈ are worked out from the molar mass of the structure shown. “Also recorded” adds a separate entry of the source.

Assays:
[1] = system: T. gondii tachyzoites of the RH-GFP strain; assay: Toxoplasma tachyzoites invasion assay (Assay A); settings: 3 h pre-treatment at 35.35, 70.70 and 176.75 μg/mL, then 24 h treatment-free
Description: The Hs27 cells were cultured on Lab-Tek™ 4-well Chamber Slides (Nunc) (5 × 10^4 cells/500 μL per well).
Then, the cells were washed to remove extracellular parasites and parasite culture medium (without any compounds) was added for 24 h.
In both assays as the control, Hs27 cells were infected, but not treated. After subsequent 24 h of incubation (Assay A and B), the slides were washed with sterile PBS, fixed with formaldehyde solution (252549, Sigma-Aldrich), 3.7% in PBS for 20 min, and stained with DAPI for 10 min (1 mg/mL, ThermoFisher Scientific, Waltham, MA). Microscopic analysis of 100 cells in turn, comprised of counting the infected cell ratio and tachyzoites per each parasitophorous vacuoles of infected cell, was performed using a fluorescent microscope (Axio Scope.A1, Carl Zeiss, Germany) at a magnification ×1000. For image processing ZEISS ZEN Microscope Software version 3.1 (Oberkochen, Germany) was used. Three independent experiments on triplicate chamber slides using the same conditions for both assays were performed.

[2] = Cytotoxicity against glioblastoma cells (MTT); type: cell-based, human; settings: human, T98G glioblastoma cells, MTT, read-out: Viability of T98G cells (% of control ± SD)
Description: (§1) Cytotoxic effect of 20b was evaluated using glioblastoma (T98G) cells obtained from the American Type Culture Collection (Manassas, VA). Cells were cultured in Dulbecco’s Modified Eagle’s Medium (DMEM-high glucose) (Sigma Aldrich, St. Louis, MO), supplemented with 10% heat inactivated FBS, penicillin (100 U/mL), and streptomycin (100 μg/mL) (Sigma Aldrich, St. Louis, MO). Cells were maintained in a humidified atmosphere of 5% CO2 and 95% air at 37 °C. Stock solutions of the investigated compounds (20b and temozolomide) were prepared by dissolving solid substances in a sterile DMSO. T98G glioblastoma cells were seeded into 96-well sterile plates at a density of 1 × 10^5cells/mL. After 24 h of incubation, the medium was removed from each well and then cells were incubated for the next 24 h with different concentrations of the investigated compounds (10, 25, 35, 50, and 100 µg/mL) in the medium containing 2% FBS. Viability of T98G cells was evaluated using MTT assay, whose principle is based on the conversion of 3–(4,5-dimethylthiazol-2-yl)-2,5-diphenyltetrazolium bromide (MTT) into dark-blue formazan crystals. In brief, after 24 h incubation of cells with varying concentrations of the tested compounds, culture medium was removed from the plate. Cells were washed with PBS, and then 100 µL of medium containing 10% MTT solution (5 mg/mL) was added to each well. After 3 h incubation, 100 µL (per well) of 10% SDS buffer solution was added to solubilise formazan crystals. After overnight incubation the absorbance was measured at 570 nm using a microplate reader (Epoch, BioTek Instruments, Winooski, VT). Experiments were repeated three times, and the measurements in each experiment were run in quadruplicate. Viability of the investigated cells was expressed as % of the viability of the untreated cells.

[3] = system: human glioblastoma T98G cells; assay: Cytotoxicity against glioblastoma cells (MTT); type: cell-based; settings: 24 h
Description: as §1

[4] = system: Tyrosinase (TYR) from mushrooms; assay: Inhibition of tyrosinase activity assay; type: biochemical; settings: for Diphenolase activity: substrate DOPA; for Monophenolase activity: substrate L-tyrosine
Description: Tyrosinase (TYR) from mushrooms ([…], Sigma) was used in our study. We analysed inhibition of 20 b on both monophenolase and diphenolase activity of TYR. All compound dilutions, both substrate L-tyrosine (Tyr) and levodopa (DOPA), and TYR were prepared in 50 mM phosphate buffer (pH 6.5). […] Firstly, the substrate and compound were added to a 96-well flat-bottom plate (Nunc MaxiSorp^TM, Roskilde, Denmark), next TYR was added and the initial absorbance (A0) was measured spectrophotometrically at 492 nm. Then, the plate was incubated at 25 °C for 30 min. After incubation, the amount of dopachrome produced in the reaction mixture was determined spectrophotometrically at 492 nm (A30) using the multi-mode microplate reader SpectraMax® i3. As 100% TYR activity samples without addition of compound, were used. The average results from three experiments are shown.

[5] = system: T. gondii RH-GFP; assay: Antiparasitic assay: T. gondii RH-GFP proliferation in Hs27 cells; type: cell-based, Toxoplasma gondii
[6] = system: T. gondii tachyzoites of the RH-GFP strain; assay: Intracellular Toxoplasma tachyzoites proliferation assay (Assay B); type: cell-based, Toxoplasma gondii; settings: 3 h infection, then 24 h treatment at 35.35, 70.70, 176.75 μg/mL; dose-dependent
[7] = system: Human red blood cells (RBCs); assay: Haemolytic activity determination; type: cell-based; settings: at the concentration equal to its IC50Tg
Description: (§2) Human red blood cells (RBCs) concentrate was obtained from the Regional Blood Donation and Transfusion Centre (Lublin, Poland). RBCs concentrate (5 mL) was washed three times with sterile PBS and centrifuged at 500 g for 3 min. […] The amount of free haemoglobin in supernatants was measured spectrophotometrically at 405 nm. Negative and positive controls were performed by incubating RBCs with sterile PBS and 0.1% Triton-X, respectively. Each experiment was run in triplicate.

[8] = Haemolytic activity determination; type: cell-based; settings: 2% suspension of human red blood cells, human RBCs, 37 °C, 30 min, read-out: Haemolysis (%)
Description: as §2

[9] = PAMPA-BBB assay; type: in vitro ADME
Description: BBB permeability of 20b was investigated using a parallel artificial membrane permeability assay (PAMPA) method. The PAMPA system, consisted of a 96-well microfilter plate, was divided into two chambers: a donor at the bottom and an acceptor at the top, separated by a 120-μm-thick microfilter disc coated with BBB lipid solution (Pion, Inc., Billerica, MA). The solutions of 20b were prepared in dimethylsulphoxide (DMSO) at 4 mg/mL concentration and then diluted with Prisma buffer (pH = 7.4) to obtain the donor drug solution with the final nominal concentration of 20 μg/mL. Then, 180 μL of the donor solution were added to the donor wells. Subsequently, each filter membrane of the top plate was coated with 5 μL BBB-1 lipid solution (Pion Inc.) and the acceptor well was filled with 200 μL of Brain Sink Buffer (BSB). The acceptor plate and the donor plate were sandwiched together and incubated at 37 °C for 180 min.
The permeability coefficient value (Pe) was calculated by using the following equation: Pe=−ln(1−CA/Cequilibrium)/S×(1/VD+1/VA)×t where VD – donor volume, VA – acceptor volume, Cequilibrium – equilibrium concentration, Cequilibrium=CD×VD+CA×VA/VD+VA, CD – donor concentration, CA – acceptor concentration, S – membrane area, and t – incubation time (in seconds).

[10] = system: Human Hs27 cells; assay: Genotoxic activity, single cell gel electrophoresis (comet assay); type: cell-based; settings: 24 h, concentration equal to IC50Tg
Description: All the procedures performed were in line with the manufacturer’s protocol. Human Hs27 cells, previously exposed for 24 h to the compound, were combined with liquefied low melting Agarose at 37 °C and transferred onto the OxiSelect comet slides. After storing for 15 min at 4 °C, the slides were immersed in a pre-chilled Lysis Buffer (for 45 min at 4 °C) and Alkaline Solution (for 30 min at 4 °C). Afterwards, the Alkaline Solution was replaced with pre-chilled TBE electrophoresis solution. After immersing for 5 min, the slides were put into the horizontal electrophoresis chamber and covered with TBE electrophoresis buffer. The electrophoresis was run for 15 min at 1 volt/cm. Finally, DNA was stained with Vista Green DNA Dye for 15 min at room temperature and observed under fluorescence microscope (Olympus BX63, Tokyo, Japan). The images of cells were captured using XM10 digital camera (Olympus). The DNA damage was measured quantitatively using OpenComet software. At least 50 randomly selected images were used in each analysis.

[11] = 1 µM, % of activity without compound

COc1ccc(-n2c(-c3[nH]cnc3C)n[nH]c2=S)cc1 [20b]
parasite invasion: percentage of infected cells [1]: did not cause significant reductions in percentage of infected cells | viability at 24 h, 10 µg/mL ([2]; 10 µg/mL): 94.2 ± 2.06% | viability at 24 h, 25 µg/mL ([2]; 25 µg/mL): 92 ± 3.27% | viability at 24 h, 35 µg/mL ([2]; 35 µg/mL): 87.15 ± 0.55% | viability at 24 h, 50 µg/mL ([2]; 50 µg/mL): 82.1 ± 1.73% | viability at 24 h, 100 µg/mL ([2]; 100 µg/mL): 76.26 ± 0.74% | reduction of T98G cell viability ([3]; 10 µg/mL): ~6% | reduction of T98G cell viability ([3]; 100 µg/mL): ~24% | Diphenolase activity [4, 11]: 94.6 ± 3.3% | Monophenolase activity [4, 11]: 101.76 ± 4.69% | Diphenolase activity ([4]; 10 µM): 99.6 ± 0.7% | Monophenolase activity ([4]; 10 µM): 99.01 ± 1.79% | Diphenolase activity ([4]; 25 µM): 92.7 ± 1.7% | Monophenolase activity ([4]; 25 µM): 92.97 ± 2.54% | Diphenolase activity ([4]; 50 µM): 91.2 ± 1.2% | Monophenolase activity ([4]; 50 µM): 90.66 ± 4.29% | Diphenolase activity ([4]; 100 µM): 75.3 ± 7.8% | Monophenolase activity ([4]; 100 µM): 70.81 ± 2.18% | Diphenolase activity ([4]; 200 µM): 52.7 ± 6.8% | Monophenolase activity ([4]; 200 µM): 46.79 ± 4.31% | Diphenolase activity ([4]; 400 µM): 25.7 ± 12.8% | Monophenolase activity ([4]; 400 µM): 23.09 ± 8.35% | inhibitory effect on tyrosinase activity ([4]; at concentrations below 50 µM): < 10% | selectivity (SI) relative to PYR ([5]; SI of compound vs SI of PYR): 11 fold | selectivity (SI) relative to SDZ ([5]; SI of compound vs SI of SDZ): 160 fold | selectivity (SI) relative to TRI ([5]; SI of compound vs SI of TRI): 4 fold | IC50 ([5]; Toxoplasma gondii, T. gondii RH-GFP in Hs27 cells, 96 h, values above highest tested concentration extrapolated, read-out: IC50Tg): 35.4 µg/mL (≈ 123 µM) | SI ([5]; selectivity index, CC30 (L929)/IC50Tg): 70.72 | intracellular proliferation: size of PV and number of tachyzoites per PV [6]: significant reduction in both size of the PV and number of intra vacuolar tachyzoites | haemolytic activity [7]: no specific haemolytic activity; also recorded: no specific haemolytic changes | hemolysis at 30 min, 5 µg/mL ([8]; 5 µg/mL): 0.038 ± 0.007% | hemolysis at 30 min, 10 µg/mL ([8]; 10 µg/mL): 0.104 ± 0.042% | hemolysis at 30 min, 35 µg/mL ([8]; 35 µg/mL): 0.183 ± 0.086% | BBB permeation classification ([9]; CNS+ if Pe > 5.19, CNS− if Pe < 2.07 (× 10^−6 cm·s^−1)): centrally active | Papp at 180 min, 20 μg/mL ([9]; pH 7.4, 37 °C, 180 min, read-out: permeability coefficient Pe): 34.9 ± 2.73 ×10⁻⁶ cm/s | % DNA in comet tail [10]: 3.38 ± 0.45% | genotoxic effect (DNA damage) [10]: no induction of DNA damage; also recorded: no genotoxic effect
